Laboratory results published in patent US4175125A, “Method for treating methicillin resistant staphylococcus aureus” (Eli Lilly and Company, priority 1978, dated 1979).
In brackets after ≈: the same amount, converted by molar mass.

Tests used:
[1] = system: Staphylococcus aureus cultures; assay: Broth dilution MIC in trypticase soy broth, low and high NaCl (Example 10); assay type: cell-based; conditions: for MIC: Staphylococcus aureus, TSB, read-out: MIC
Procedure, shortened: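 MIC by broth dilution, in µg/ml, against Staphylococcus aureus cultures grown in trypticase soy broth containing either 0.5 percent or 5.0 percent NaCl. The high-salt condition serves to distinguish methicillin-resistant cultures.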

[2] = system: Staphylococcus aureus cultures; assay: Agar dilution susceptibility test, phenylthioacetyl cephalosporins vs methicillin resistant S. aureus (Example 9); assay type: cell-based; conditions: for MIC: Staphylococcus aureus, read-out: MIC
Procedure, shortened: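 Agar dilution MIC, μg/mL, against Staphylococcus aureus isolates, inocula diluted to 10^3 bacteria per spot. Panel: penicillin-sensitive 3055 and penicillin-resistant H232 controls, methicillin-resistant clinical isolates, and laboratory-selected mutant 3136.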

[3] = culture 3055 (control), table part marked b
[4] = culture 3055 (control), table part marked c
[5] = culture 3130, table part marked b
[6] = culture 3130, table part marked c
[7] = culture 3131, table part marked b
[8] = culture 3131, table part marked c
[9] = culture 3132 (first column so headed), table part marked b
[10] = culture 3132 (first column so headed), table part marked c
[11] = culture 3132 (second column so headed), table part marked b
[12] = culture 3132 (second column so headed), table part marked c
[13] = culture 3134, table part marked b
[14] = culture 3134, table part marked c
[15] = culture 3135, table part marked b
[16] = culture 3135, table part marked c
[17] = culture 3136, table part marked b
[18] = culture 3136, table part marked c
[19] = culture 3137, table part marked b
[20] = culture 3137, table part marked c
[21] = culture 3138, table part marked b
[22] = culture 3138, table part marked c
[23] = culture 3139, table part marked b
[24] = culture 3139, table part marked c
[25] = culture (Seattle) 966, table part marked b
[26] = culture (Seattle) 966, table part marked c
[27] = culture H232 (control), table part marked b
[28] = culture H232 (control), table part marked c
[29] = culture Kavarnick 1138501, table part marked b
[30] = culture Kavarnick 1138501, table part marked c
[31] = culture S61, table part marked b
[32] = culture S61, table part marked c
[33] = culture 3055 (control, benzylpenicillin sensitive), table part marked b
[34] = culture 3055 (control, benzylpenicillin sensitive), table part marked c
[35] = culture 3132, table part marked b
[36] = culture 3132, table part marked c
[37] = culture 3133, table part marked b
[38] = culture 3133, table part marked c
[39] = culture H232 (control, benzylpenicillin-resistant), table part marked b
[40] = culture H232 (control, benzylpenicillin-resistant), table part marked c
[41] = culture Kavarmark 1138501, table part marked b
[42] = culture Kavarmark 1138501, table part marked c

CC(=O)OCC1=C(C(=O)O)N2C(=O)C(NC(=O)CSc3cc(Cl)cc(Cl)c3)C2SC1 (stereo not drawn) [Example 3, 7-(3,5-Dichlorophenylthioacetamido)-cephalosporanic acid]
MIC [1, 3]: 0.06 µg/mL (≈ 0.122 µM) | MIC [1, 4]: 0.06 µg/mL (≈ 0.122 µM) | MIC [1, 5]: < 0.5 µg/mL | MIC [1, 6]: 2 µg/mL (≈ 4.07 µM) | MIC [1, 7]: < 0.5 µg/mL | MIC [1, 8]: 1 µg/mL (≈ 2.04 µM) | MIC [1, 9]: < 0.5 µg/mL | MIC [1, 10]: 1 µg/mL (≈ 2.04 µM) | MIC [1, 11]: < 0.5 µg/mL | MIC [1, 12]: 2 µg/mL (≈ 4.07 µM) | MIC [1, 13]: 1 µg/mL (≈ 2.04 µM) | MIC [1, 14]: 2 µg/mL (≈ 4.07 µM) | MIC [1, 15]: < 0.5 µg/mL | MIC [1, 16]: 2 µg/mL (≈ 4.07 µM) | MIC [1, 17]: 0.5 µg/mL (≈ 1.02 µM) | MIC [1, 18]: 2 µg/mL (≈ 4.07 µM) | MIC [1, 19]: 2 µg/mL (≈ 4.07 µM) | MIC [1, 20]: 4 µg/mL (≈ 8.14 µM) | MIC [1, 21]: 1 µg/mL (≈ 2.04 µM) | MIC [1, 22]: 2 µg/mL (≈ 4.07 µM) | MIC [1, 23]: 2 µg/mL (≈ 4.07 µM) | MIC [1, 24]: 2 µg/mL (≈ 4.07 µM) | MIC [1, 25]: 1 µg/mL (≈ 2.04 µM) | MIC [1, 26]: 8 µg/mL (≈ 16.3 µM) | MIC [1, 27]: 0.12 µg/mL (≈ 0.244 µM) | MIC [1, 28]: 0.12 µg/mL (≈ 0.244 µM) | MIC [1, 29]: 0.5 µg/mL (≈ 1.02 µM) | MIC [1, 30]: 1 µg/mL (≈ 2.04 µM) | MIC [1, 31]: 0.5 µg/mL (≈ 1.02 µM) | MIC [1, 32]: 1 µg/mL (≈ 2.04 µM) | MIC ([1]; culture S, table part marked b): 0.5 µg/mL (≈ 1.02 µM) | MIC ([1]; culture S, table part marked c): 2 µg/mL (≈ 4.07 µM) | MIC [2, 33]: < 0.06 µg/mL | MIC [2, 34]: < 0.06 µg/mL | MIC [2, 5]: 0.5 µg/mL (≈ 1.02 µM) | MIC [2, 6]: 1 µg/mL (≈ 2.04 µM) | MIC [2, 7]: 0.5 µg/mL (≈ 1.02 µM) | MIC [2, 8]: 2 µg/mL (≈ 4.07 µM) | MIC [2, 35]: 0.25 µg/mL (≈ 0.509 µM) | MIC [2, 36]: 0.5 µg/mL (≈ 1.02 µM) | MIC [2, 37]: 1 µg/mL (≈ 2.04 µM) | MIC [2, 38]: 1 µg/mL (≈ 2.04 µM) | MIC [2, 13]: 0.5 µg/mL (≈ 1.02 µM) | MIC [2, 14]: 1 µg/mL (≈ 2.04 µM) | MIC [2, 15]: 0.5 µg/mL (≈ 1.02 µM) | MIC [2, 16]: 1 µg/mL (≈ 2.04 µM) | MIC [2, 17]: 0.25 µg/mL (≈ 0.509 µM) | MIC [2, 18]: 2 µg/mL (≈ 4.07 µM) | MIC [2, 19]: 2 µg/mL (≈ 4.07 µM) | MIC [2, 20]: 4 µg/mL (≈ 8.14 µM) | MIC [2, 21]: 2 µg/mL (≈ 4.07 µM) | MIC [2, 22]: 1 µg/mL (≈ 2.04 µM) | MIC [2, 23]: 0.5 µg/mL (≈ 1.02 µM) | MIC [2, 24]: 1 µg/mL (≈ 2.04 µM) | MIC [2, 25]: 0.25 µg/mL (≈ 0.509 µM) | MIC [2, 26]: 0.5 µg/mL (≈ 1.02 µM) | MIC [2, 39]: < 0.06 µg/mL | MIC [2, 40]: < 0.06 µg/mL | MIC [2, 41]: 0.5 µg/mL (≈ 1.02 µM) | MIC [2, 42]: 2 µg/mL (≈ 4.07 µM) | MIC [2, 31]: 0.5 µg/mL (≈ 1.02 µM) | MIC [2, 32]: 2 µg/mL (≈ 4.07 µM) | effectiveness in in vitro tests vs methicillin, cephalothin and cephaloridine ([2]; various cultures of methicillin-resistant Staphylococcus aureus): substantially more effective than methicillin, cephalothin, and cephaloridine

COc1cccc(OC)c1C(=O)N[C@@H]1C(=O)N2[C@@H]1SC(C)(C)[C@@H]2C(=O)O [Methicillin, methicillin]
difference in MIC values in low versus high salt TSB cultures ([1]; 0.5 percent vs 5.0 percent NaCl, methicillin-resistant S. aureus): wide disparity in MIC values | MIC [1, 3]: 2 µg/mL (≈ 5.26 µM) | MIC [1, 4]: 2 µg/mL (≈ 5.26 µM) | MIC [1, 5]: 16 µg/mL (≈ 42.1 µM) | MIC [1, 6]: 64 µg/mL (≈ 168 µM) | MIC [1, 7]: 16 µg/mL (≈ 42.1 µM) | MIC [1, 8]: 128 µg/mL (≈ 336 µM) | MIC [1, 9]: 32 µg/mL (≈ 84.1 µM) | MIC [1, 10]: 64 µg/mL (≈ 168 µM) | MIC [1, 11]: 8 µg/mL (≈ 21 µM) | MIC [1, 12]: 128 µg/mL (≈ 336 µM) | MIC [1, 13]: 32 µg/mL (≈ 84.1 µM) | MIC [1, 14]: 64 µg/mL (≈ 168 µM) | MIC [1, 15]: 32 µg/mL (≈ 84.1 µM) | MIC [1, 16]: 64 µg/mL (≈ 168 µM) | MIC [1, 17]: 32 µg/mL (≈ 84.1 µM) | MIC [1, 18]: 128 µg/mL (≈ 336 µM) | MIC [1, 19]: > 128 µg/mL | MIC [1, 20]: > 128 µg/mL | MIC [1, 21]: 128 µg/mL (≈ 336 µM) | MIC [1, 22]: 128 µg/mL (≈ 336 µM) | MIC [1, 23]: 16 µg/mL (≈ 42.1 µM) | MIC [1, 24]: > 128 µg/mL | MIC [1, 25]: 8 µg/mL (≈ 21 µM) | MIC [1, 26]: 64 µg/mL (≈ 168 µM) | MIC [1, 27]: 4 µg/mL (≈ 10.5 µM) | MIC [1, 28]: 4 µg/mL (≈ 10.5 µM) | MIC [1, 29]: 32 µg/mL (≈ 84.1 µM) | MIC [1, 30]: 128 µg/mL (≈ 336 µM) | MIC [1, 31]: 16 µg/mL (≈ 42.1 µM) | MIC [1, 32]: 64 µg/mL (≈ 168 µM) | MIC ([1]; culture S, table part marked b): 16 µg/mL (≈ 42.1 µM) | MIC ([1]; culture S, table part marked c): 16 µg/mL (≈ 42.1 µM) | MIC [2, 33]: 1 µg/mL (≈ 2.63 µM) | MIC [2, 34]: 2 µg/mL (≈ 5.26 µM) | MIC [2, 5]: 8 µg/mL (≈ 21 µM) | MIC [2, 6]: 128 µg/mL (≈ 336 µM) | MIC [2, 7]: 8 µg/mL (≈ 21 µM) | MIC [2, 8]: 128 µg/mL (≈ 336 µM) | MIC [2, 35]: 8 µg/mL (≈ 21 µM) | MIC [2, 36]: 32 µg/mL (≈ 84.1 µM) | MIC [2, 37]: 8 µg/mL (≈ 21 µM) | MIC [2, 38]: 128 µg/mL (≈ 336 µM) | MIC [2, 13]: 16 µg/mL (≈ 42.1 µM) | MIC [2, 14]: 64 µg/mL (≈ 168 µM) | MIC [2, 15]: 8 µg/mL (≈ 21 µM) | MIC [2, 16]: 64 µg/mL (≈ 168 µM) | MIC [2, 17]: 8 µg/mL (≈ 21 µM) | MIC [2, 18]: 64 µg/mL (≈ 168 µM) | MIC [2, 19]: > 128 µg/mL | MIC [2, 20]: > 128 µg/mL | MIC [2, 21]: 16 µg/mL (≈ 42.1 µM) | MIC [2, 22]: > 128 µg/mL | MIC [2, 23]: 8 µg/mL (≈ 21 µM) | MIC [2, 24]: > 128 µg/mL | MIC [2, 25]: 8 µg/mL (≈ 21 µM) | MIC [2, 26]: 64 µg/mL (≈ 168 µM) | MIC [2, 39]: 2 µg/mL (≈ 5.26 µM) | MIC [2, 40]: 2 µg/mL (≈ 5.26 µM) | MIC [2, 41]: 8 µg/mL (≈ 21 µM) | MIC [2, 42]: 128 µg/mL (≈ 336 µM) | MIC [2, 31]: 8 µg/mL (≈ 21 µM) | MIC [2, 32]: 128 µg/mL (≈ 336 µM)
